{"source": "patent US11260101B2", "about": "“Repair peptide for use in promoting post-traumatic tissue repair and regeneration, and application thereof” (Jinan University, priority 2017, dated 2022)", "key": {"skin wound": {"system": "skin wound", "experiment": "Skin wound healing after back incision", "format": "in vivo, Balb/c mice", "conditions": "10 μL drop-wise into 1-cm sutured incisions once a day", "method": "6. Detection of the Wound Healing in […] Skin Promoted by Repair Peptides R1, R2, R3 and R4\nBalb/c mice were anesthetized by intra-peritoneal injection with 1% pentobarbital sodium (100 mg/kg), and the back was depilated and disinfected using conventional sterilization methods with 1% iodophor and 75% alcohol. Both sides of the back were cut symmetrically leaving 1-cm incisions. The incisions were sutured with two needles in the sterilized surgery. Then 10 μL of repair peptides R1, R2, R3 and R4 are respectively added drop-wise into the wounds. The wounds were open with no cotton yarn covered. A blank control group treated with PBS solution was set up."}, "[1]": {"system": "chick embryo chorioallantoic membrane", "experiment": "Angiogenesis in chick embryo chorioallantoic membrane, R1-R4 at the same concentration", "format": "in vivo", "conditions": "100 μL at 100 ng/mL, three days culture", "method": "5. Detection of the Angiogenesis in the Chick Embryo Chorioallantoic Membrane Promoted by Repair Peptides R1, R2, R3 and R4\nA fertilized egg cultured for 5 days was placed with the bigger head of the egg up, then the eggshell was removed. 100 μL of repair peptides R1, R2, R3 and R4 at concentration of 100 ng/mL was respectively added drop-wise into the exposed chick embryo chorioallantoic membrane, and the opening was sealed with clean filter paper. A blank control group treated with PBS solution was set up. Further cultured for three days, then the chick embryo chorioallantoic membrane was peeled off, observed under a stereoscope and photographed, and the image was analyzed by using the software, ImageJ plus."}, "[2]": {"system": "human umbilical vein endothelial cells (HUVEC)", "experiment": "Proliferation-promoting effect on HUVEC, CCK-8 method", "format": "cell-based", "conditions": "24 hours treatment", "method": "3. Detection of the Proliferation-Promoting Effects of Repair Peptides R1, R2, R3 and R4, and the bFGF Respectively on Human Umbilical Vein Endothelial Cells (HUVEC) by Using the CCK-8 Method\n(§1) The HUVEC cells were plated in 96-well plates at 4000 cells per well. After the cells were adhered and then starved for 24 hours, the cells were treated for 24 hours with repair peptides R1, R2, R3 or R4, or the bFGF respectively at concentrations increased by 5 times. After that, the cells were treated with a CCK-8 reagent, and the OD value of each well was detected by an enzyme-labeled instrument."}, "[3]": {"system": "mouse fibroblasts Balb/c 3T3", "experiment": "Proliferation-promoting effect on fibroblasts Balb/c 3T3, CCK-8 method", "format": "cell-based", "conditions": "24 hours treatment", "method": "2. Detection of the Proliferation-Promoting Effects of Repair Peptides R1, R2, R3 and R4, and the bFGF Respectively on Fibroblasts Balb/c 3T3 by Using the CCK-8 Method\nas §1, with “The Ballb/c 3t3 cells were” for “The HUVEC cells were”, “hours with the repair peptides” for “hours with repair peptides”, “and the optical density (OD) value of” for “and the OD value of”"}, "[4]": {"system": "chick embryo chorioallantoic membrane", "experiment": "Angiogenesis in chick embryo chorioallantoic membrane, R1 at increasing concentrations", "format": "in vivo", "conditions": "10 μL at concentrations increased by 25 times, three days culture", "method": "4. Angiogenesis in the Chick Embryo Chorioallantoic Membrane Promoted by the Repair Peptide R1\nA fertilized egg cultured for 5 days was placed with the bigger head of the egg up. The eggshell was removed, and a silica gel ring was placed in the middle of the exposed chick embryo chorioallantoic membrane. 10 μL of the repair peptide R1 at concentrations increased by 25 times was respectively added drop-wise into the silica gel ring, and the opening was sealed with clean filter paper. A blank control group treated with PBS solution was set up. Further cultured for three days, then the chick embryo chorioallantoic membrane was peeled off, observed under a stereoscope and photographed, and the image was analyzed by using the software, ImageJ plus."}, "FGFR2": {"biological_target": "FGFR2 (Homo sapiens, UniProt P21802)", "sequence (P21802 22-821, species assumed)": "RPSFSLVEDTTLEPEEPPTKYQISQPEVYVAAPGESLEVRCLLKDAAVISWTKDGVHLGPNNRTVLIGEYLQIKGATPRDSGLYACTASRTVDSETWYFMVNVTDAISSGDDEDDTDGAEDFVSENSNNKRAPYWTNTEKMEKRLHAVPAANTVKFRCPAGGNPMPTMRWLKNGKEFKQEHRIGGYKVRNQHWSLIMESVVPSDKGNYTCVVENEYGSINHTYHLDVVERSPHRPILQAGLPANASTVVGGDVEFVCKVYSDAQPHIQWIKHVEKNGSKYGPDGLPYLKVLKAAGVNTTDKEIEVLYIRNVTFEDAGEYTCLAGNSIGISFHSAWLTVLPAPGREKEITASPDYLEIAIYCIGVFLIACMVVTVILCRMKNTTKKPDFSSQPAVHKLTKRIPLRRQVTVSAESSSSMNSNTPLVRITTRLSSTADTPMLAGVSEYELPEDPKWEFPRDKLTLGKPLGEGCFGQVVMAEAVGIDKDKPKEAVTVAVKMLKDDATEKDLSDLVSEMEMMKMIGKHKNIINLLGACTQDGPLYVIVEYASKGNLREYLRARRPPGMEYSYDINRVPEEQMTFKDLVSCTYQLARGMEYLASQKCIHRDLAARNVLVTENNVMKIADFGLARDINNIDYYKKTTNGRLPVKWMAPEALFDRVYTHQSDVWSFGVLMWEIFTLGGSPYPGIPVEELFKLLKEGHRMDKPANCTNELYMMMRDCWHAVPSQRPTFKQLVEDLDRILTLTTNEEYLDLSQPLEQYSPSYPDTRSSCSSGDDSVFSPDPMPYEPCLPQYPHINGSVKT", "experiment": "Affinity to FGFR2 by isothermal titration calorimetry (ITC)", "format": "binding", "conditions": "for Kd: read-out: dissociation constant Kd with FGFR2", "from_the_text": "1. Detection of the Affinity Between the Repair Peptide R1 and FGFR2 by Using the ITC Method\n(The K denoted the affinity constant, and the Kd denoted the dissociation constant. The larger the K was and the smaller the Kd was, the stronger the affinity was)."}, "[5]": {"conditions": "lower concentration groups (≤0.16 μM)"}}, "note": "Positions of bridges follow the written chain, without caps; N, C: chain ends. No end group written: not given here.", "data": [{"substance": "CGPANVETC (disulfide 1-9 (inferred)) [R4]", "values": [{"measurement": "skin wound healing", "setting": "skin wound", "value": "the healing was sped up"}, {"measurement": "capillaries in the chick embryo chorioallantoic membrane", "setting": "[1]", "value": "significantly increased"}, {"measurement": "proliferation-promoting activity on HUVEC (OD, CCK-8)", "setting": "[2]; higher concentration groups", "value": "still had a proliferation-promoting activity"}, {"measurement": "proliferation-promoting activity on HUVEC (OD, CCK-8)", "setting": "[2]; [5]", "value": "comparable proliferation-promoting activity"}, {"measurement": "proliferation-promoting activity on Balb/c 3T3 (OD, CCK-8)", "setting": "[3]; higher concentration groups", "value": "still had a proliferation-promoting activity"}, {"measurement": "proliferation-promoting activity on Balb/c 3T3 (OD, CCK-8)", "setting": "[3]; lower concentration groups", "value": "comparable proliferation-promoting activity"}]}, {"substance": "GPANVEKEKEK (R3)", "values": [{"measurement": "skin wound healing", "setting": "skin wound", "value": "the healing was sped up"}, {"measurement": "capillaries in the chick embryo chorioallantoic membrane", "setting": "[1]", "value": "significantly increased"}, {"measurement": "proliferation-promoting activity on HUVEC (OD, CCK-8)", "setting": "[2]; higher concentration groups", "value": "still had a proliferation-promoting activity"}, {"measurement": "proliferation-promoting activity on HUVEC (OD, CCK-8)", "setting": "[2]; [5]", "value": "comparable proliferation-promoting activity"}, {"measurement": "proliferation-promoting activity on Balb/c 3T3 (OD, CCK-8)", "setting": "[3]; higher concentration groups", "value": "still had a proliferation-promoting activity"}, {"measurement": "proliferation-promoting activity on Balb/c 3T3 (OD, CCK-8)", "setting": "[3]; lower concentration groups", "value": "comparable proliferation-promoting activity"}]}, {"substance": "GPANVET [R1, GPANVET]", "values": [{"measurement": "skin wound healing", "setting": "skin wound", "value": "the healing was sped up"}, {"measurement": "capillaries in the chick embryo chorioallantoic membrane", "setting": "[1]", "value": "significantly increased"}, {"measurement": "proliferation-promoting activity on HUVEC (OD, CCK-8)", "setting": "[2]; higher concentration groups", "value": "still had a proliferation-promoting activity"}, {"measurement": "proliferation-promoting activity on HUVEC (OD, CCK-8)", "setting": "[2]; [5]", "value": "comparable proliferation-promoting activity"}, {"measurement": "capillaries in the chick embryo chorioallantoic membrane", "setting": "[4]", "value": "significantly increased with the increasing dose"}, {"measurement": "proliferation-promoting activity on Balb/c 3T3 (OD, CCK-8)", "setting": "[3]; higher concentration groups", "value": "still had a proliferation-promoting activity"}, {"measurement": "proliferation-promoting activity on Balb/c 3T3 (OD, CCK-8)", "setting": "[3]; lower concentration groups", "value": "comparable proliferation-promoting activity"}, {"measurement": "affinity constant K with FGFR2", "setting": "FGFR2", "value": "7.35e+08 ± 2.1e+08", "unit": "M⁻¹"}, {"measurement": "affinity to FGFR2 relative to that of bFGF", "setting": "FGFR2; R1-FGFR2 versus bFGF-FGFR2", "value": "about 4,500 times"}, {"measurement": "Kd", "setting": "FGFR2", "value": "~0.00137", "unit": "µM"}]}, {"substance": "KVKVGPANVKVKV (R2)", "values": [{"measurement": "skin wound healing", "setting": "skin wound", "value": "the healing was sped up"}, {"measurement": "capillaries in the chick embryo chorioallantoic membrane", "setting": "[1]", "value": "significantly increased"}, {"measurement": "proliferation-promoting activity on HUVEC (OD, CCK-8)", "setting": "[2]; higher concentration groups", "value": "still had a proliferation-promoting activity"}, {"measurement": "proliferation-promoting activity on HUVEC (OD, CCK-8)", "setting": "[2]; [5]", "value": "comparable proliferation-promoting activity"}, {"measurement": "proliferation-promoting activity on Balb/c 3T3 (OD, CCK-8)", "setting": "[3]; higher concentration groups", "value": "still had a proliferation-promoting activity"}, {"measurement": "proliferation-promoting activity on Balb/c 3T3 (OD, CCK-8)", "setting": "[3]; lower concentration groups", "value": "comparable proliferation-promoting activity"}]}, {"substance": "bFGF: recombinant basic Fibroblast Growth Factor (155 amino acids), clinically applied to wounds and burns", "values": [{"measurement": "proliferation-promoting activity on HUVEC (OD, CCK-8)", "setting": "[2]; higher concentration groups", "value": "cell proliferation was inhibited"}, {"measurement": "proliferation-promoting activity on HUVEC (OD, CCK-8)", "setting": "[2]; [5]", "value": "comparable proliferation-promoting activity"}, {"measurement": "proliferation-promoting activity on Balb/c 3T3 (OD, CCK-8)", "setting": "[3]; higher concentration groups", "value": "cell proliferation was inhibited"}, {"measurement": "proliferation-promoting activity on Balb/c 3T3 (OD, CCK-8)", "setting": "[3]; lower concentration groups", "value": "comparable proliferation-promoting activity"}, {"measurement": "affinity constant K with FGFR2", "setting": "FGFR2", "value": "162000 ± 25000", "unit": "M⁻¹"}, {"measurement": "Kd", "setting": "FGFR2", "value": "~6.17", "unit": "µM"}]}]}
